Reference: BindingDB's records for doi:10.1021/jm7012858 (Wyeth Research, 2008)

What follows are compounds tested against Phosphatidylinositol 3-kinase regulatory subunit alpha/4,5-bisphosphate 3-kinase catalytic subunit alpha isoform (Homo sapiens, UniProt P42336) (assay: PI3K Inhibition Assay). Conditions: not given.
Phosphatidylinositol 3-kinase regulatory subunit alpha/4,5-bisphosphate 3-kinase catalytic subunit alpha isoform, sequence (P27986 whole entry, canonical isoform): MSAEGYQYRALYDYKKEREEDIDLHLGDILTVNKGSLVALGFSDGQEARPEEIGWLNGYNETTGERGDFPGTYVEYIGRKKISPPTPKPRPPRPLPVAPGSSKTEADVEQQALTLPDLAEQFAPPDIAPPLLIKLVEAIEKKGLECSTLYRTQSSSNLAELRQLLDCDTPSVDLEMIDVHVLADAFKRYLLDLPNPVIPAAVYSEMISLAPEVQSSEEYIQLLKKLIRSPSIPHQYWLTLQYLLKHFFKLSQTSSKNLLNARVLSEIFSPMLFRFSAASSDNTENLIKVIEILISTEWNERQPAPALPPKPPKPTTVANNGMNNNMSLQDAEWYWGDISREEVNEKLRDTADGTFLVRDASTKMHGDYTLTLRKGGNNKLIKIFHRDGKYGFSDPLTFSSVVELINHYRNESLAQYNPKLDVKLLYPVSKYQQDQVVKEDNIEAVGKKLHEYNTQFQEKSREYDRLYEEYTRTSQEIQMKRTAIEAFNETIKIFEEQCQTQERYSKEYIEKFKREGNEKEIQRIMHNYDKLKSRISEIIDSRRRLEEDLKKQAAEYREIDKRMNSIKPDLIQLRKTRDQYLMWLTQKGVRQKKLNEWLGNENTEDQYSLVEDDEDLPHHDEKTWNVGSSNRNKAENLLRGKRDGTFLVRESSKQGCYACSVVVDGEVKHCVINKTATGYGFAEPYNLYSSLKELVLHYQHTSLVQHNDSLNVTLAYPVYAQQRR
Phosphatidylinositol 3-kinase regulatory subunit alpha/4,5-bisphosphate 3-kinase catalytic subunit alpha isoform, sequence (P42336 whole entry, canonical isoform): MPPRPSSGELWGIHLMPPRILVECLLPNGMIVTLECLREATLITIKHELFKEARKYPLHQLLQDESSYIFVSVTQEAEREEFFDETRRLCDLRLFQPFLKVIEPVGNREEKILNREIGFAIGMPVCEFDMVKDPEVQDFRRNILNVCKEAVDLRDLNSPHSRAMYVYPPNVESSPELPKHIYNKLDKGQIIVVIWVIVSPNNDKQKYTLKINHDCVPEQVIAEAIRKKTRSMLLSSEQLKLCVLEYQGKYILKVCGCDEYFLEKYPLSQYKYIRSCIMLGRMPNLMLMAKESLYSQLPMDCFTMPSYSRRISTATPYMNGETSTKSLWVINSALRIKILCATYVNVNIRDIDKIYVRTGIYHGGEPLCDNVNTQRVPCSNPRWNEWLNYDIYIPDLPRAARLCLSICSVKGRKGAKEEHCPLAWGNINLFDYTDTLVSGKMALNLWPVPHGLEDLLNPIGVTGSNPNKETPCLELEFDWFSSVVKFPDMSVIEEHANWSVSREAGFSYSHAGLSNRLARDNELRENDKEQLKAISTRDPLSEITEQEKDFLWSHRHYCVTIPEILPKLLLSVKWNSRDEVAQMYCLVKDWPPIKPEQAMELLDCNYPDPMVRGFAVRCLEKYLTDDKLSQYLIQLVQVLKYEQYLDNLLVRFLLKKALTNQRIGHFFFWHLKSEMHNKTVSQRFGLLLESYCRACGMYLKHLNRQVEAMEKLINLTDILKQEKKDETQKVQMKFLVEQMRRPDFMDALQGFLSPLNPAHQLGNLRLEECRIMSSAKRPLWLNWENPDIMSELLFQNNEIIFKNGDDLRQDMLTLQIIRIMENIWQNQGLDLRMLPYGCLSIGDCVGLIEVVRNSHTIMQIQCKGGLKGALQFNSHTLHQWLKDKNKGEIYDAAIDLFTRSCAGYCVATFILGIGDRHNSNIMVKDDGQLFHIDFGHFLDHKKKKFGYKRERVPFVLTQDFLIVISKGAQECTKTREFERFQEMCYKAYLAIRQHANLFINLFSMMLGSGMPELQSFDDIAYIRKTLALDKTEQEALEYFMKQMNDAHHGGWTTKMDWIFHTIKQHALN
Protocol: Inhibition of PI3K enzyme activity is measured in a microtiter plate-based fluorescence polarization (FP) assay.
An IC50 of 78 nM was found for COC[C@H]1OC(=O)C(=CN2CCN(CCN3CCOCC3)CC2)C2C(=O)C(=O)C3=C([C@H](OC(C)=O)C[C@@]4(C)C3CC[C@@H]4O)[C@]21C (stereo partly drawn) [(2R,3S,6E,14S,15S,17R)-8,14-dihydroxy-3-(methoxymethyl)-2,15-dimethyl-6-({4-[2-(morpholin-4-yl)ethyl]piperazin-1-yl}methylidene)-5,9-dioxo-4-oxatetracyclo[8.7.0.0^{2,7}.0^{11,15}]heptadeca-1(10),7-dien-17-yl acetate] in this work. An IC50 of 45 nM was found for COC[C@H]1OC(=O)C(=CN2CCN(CCCN3CCOCC3)CC2)C2C(=O)C(=O)C3=C([C@H](OC(C)=O)C[C@@]4(C)C3CC[C@@H]4O)[C@]21C (stereo partly drawn) [(2R,3S,6E,14S,15S,17R)-8,14-dihydroxy-3-(methoxymethyl)-2,15-dimethyl-6-({4-[3-(morpholin-4-yl)propyl]piperazin-1-yl}methylidene)-5,9-dioxo-4-oxatetracyclo[8.7.0.0^{2,7}.0^{11,15}]heptadeca-1(10),7-dien-17-yl acetate] in this work. An IC50 of 10 nM was found for COC[C@H]1OC(=O)C(=CN(C)CCCN2CCN(C)CC2)C2C(=O)C(=O)C3=C([C@H](OC(C)=O)C[C@@]4(C)C3CC[C@@H]4O)[C@]21C (stereo partly drawn) [(2R,3S,6E,14S,15S,17R)-8,14-dihydroxy-3-(methoxymethyl)-2,15-dimethyl-6-({methyl[3-(4-methylpiperazin-1-yl)propyl]amino}methylidene)-5,9-dioxo-4-oxatetracyclo[8.7.0.0^{2,7}.0^{11,15}]heptadeca-1(10),7-dien-17-yl acetate] in this work. An IC50 of 24 nM was found for COC[C@H]1OC(=O)C(=CN(C)CCCN2CCOCC2)C2C(=O)C(=O)C3=C([C@H](OC(C)=O)C[C@@]4(C)C3CC[C@@H]4O)[C@]21C (stereo partly drawn) [(2R,3S,6E,14S,15S,17R)-8,14-dihydroxy-3-(methoxymethyl)-2,15-dimethyl-6-({methyl[3-(morpholin-4-yl)propyl]amino}methylidene)-5,9-dioxo-4-oxatetracyclo[8.7.0.0^{2,7}.0^{11,15}]heptadeca-1(10),7-dien-17-yl acetate] in this work. An IC50 of 90 nM was found for COC[C@H]1OC(=O)C(=CN2CCN(C)CC2)C2C(=O)C(=O)C3=C([C@H](OC(C)=O)C[C@@]4(C)C3CC[C@@H]4O)[C@]21C (stereo partly drawn) [(2R,3S,6E,14S,15S,17R)-8,14-dihydroxy-3-(methoxymethyl)-2,15-dimethyl-6-[(4-methylpiperazin-1-yl)methylidene]-5,9-dioxo-4-oxatetracyclo[8.7.0.0^{2,7}.0^{11,15}]heptadeca-1(10),7-dien-17-yl acetate] in this work. An IC50 of 91 nM was found for COC[C@H]1OC(=O)C(=CN2CCN(C3CCN(C)CC3)CC2)C2C(=O)C(=O)C3=C([C@H](OC(C)=O)C[C@@]4(C)C3CC[C@@H]4O)[C@]21C (stereo partly drawn) [(2R,3S,6E,14S,15S,17R)-8,14-dihydroxy-3-(methoxymethyl)-2,15-dimethyl-6-{[4-(1-methylpiperidin-4-yl)piperazin-1-yl]methylidene}-5,9-dioxo-4-oxatetracyclo[8.7.0.0^{2,7}.0^{11,15}]heptadeca-1(10),7-dien-17-yl acetate] in this work. An IC50 of 127 nM was found for COC[C@H]1OC(=O)C(=CN(C)N2CCC(C)C2)C2C(=O)C(=O)C3=C([C@H](OC(C)=O)C[C@@]4(C)C3CC[C@@H]4O)[C@]21C (stereo partly drawn) [(2R,3S,6E,14S,15S,17R)-8,14-dihydroxy-3-(methoxymethyl)-2,15-dimethyl-6-{[methyl(3-methylpyrrolidin-1-yl)amino]methylidene}-5,9-dioxo-4-oxatetracyclo[8.7.0.0^{2,7}.0^{11,15}]heptadeca-1(10),7-dien-17-yl acetate] in this work. An IC50 of 15 nM was found for COC[C@H]1OC(=O)C(=CN(C)CCCN2CCN(c3ccc(OC)cc3)CC2)C2C(=O)C(=O)C3=C([C@H](OC(C)=O)C[C@@]4(C)C3CC[C@@H]4O)[C@]21C (stereo partly drawn) [(2R,3S,6E,14S,15S,17R)-8,14-dihydroxy-3-(methoxymethyl)-6-[({3-[4-(4-methoxyphenyl)piperazin-1-yl]propyl}(methyl)amino)methylidene]-2,15-dimethyl-5,9-dioxo-4-oxatetracyclo[8.7.0.0^{2,7}.0^{11,15}]heptadeca-1(10),7-dien-17-yl acetate] in this work.

Same assay, conditions: pH 7.5; 22 °C
An IC50 of 638 nM was found for COC[C@H]1OC(=O)C(=CN(C)CCCN(C)C)C2C(=O)C(=O)C3=C([C@H](O)C[C@@]4(C)C3CC[C@@H]4O)[C@]21C (stereo partly drawn) [(2R,3S,6Z,14S,15S,17R)-6-({[3-(dimethylamino)propyl](methyl)amino}methylidene)-8,14,17-trihydroxy-3-(methoxymethyl)-2,15-dimethyl-4-oxatetracyclo[8.7.0.0^{2,7}.0^{11,15}]heptadeca-1(10),7-diene-5,9-dione] in this work. In the case of COC[C@H]1OC(=O)C(=CNCCCN(C)C)C2C(=O)C(=O)C3=C([C@H](OC(C)=O)C[C@@]4(C)C3CC[C@@H]4O)[C@]21C (stereo partly drawn) [(2R,3S,6Z,14S,15S,17R)-6-({[3-(dimethylamino)propyl]amino}methylidene)-8,14-dihydroxy-3-(methoxymethyl)-2,15-dimethyl-5,9-dioxo-4-oxatetracyclo[8.7.0.0^{2,7}.0^{11,15}]heptadeca-1(10),7-dien-17-yl acetate], the IC50 is reported as > 10000 nM. An IC50 of 66 nM was found for COC[C@H]1OC(=O)C(=CN(CCN(C)C)Cc2ccccc2)C2C(=O)C(=O)C3=C([C@H](OC(C)=O)C[C@@]4(C)C3CC[C@@H]4O)[C@]21C (stereo partly drawn) [(2R,3S,6Z,14S,15S,17R)-6-({benzyl[2-(dimethylamino)ethyl]amino}methylidene)-8,14-dihydroxy-3-(methoxymethyl)-2,15-dimethyl-5,9-dioxo-4-oxatetracyclo[8.7.0.0^{2,7}.0^{11,15}]heptadeca-1(10),7-dien-17-yl acetate] in this work. An IC50 of 9.6 nM was found for COC[C@H]1OC(=O)C(=CN(CCN(C)C)C(C)(C)C)C2C(=O)C(=O)C3=C([C@H](OC(C)=O)C[C@@]4(C)C3CC[C@@H]4O)[C@]21C (stereo partly drawn) [(2R,3S,6Z,14S,15S,17R)-6-({tert-butyl[2-(dimethylamino)ethyl]amino}methylidene)-8,14-dihydroxy-3-(methoxymethyl)-2,15-dimethyl-5,9-dioxo-4-oxatetracyclo[8.7.0.0^{2,7}.0^{11,15}]heptadeca-1(10),7-dien-17-yl acetate] in this work. An IC50 of 7850 nM was found for CCN(C=C1C(=O)O[C@H](COC)[C@]2(C)C3=C(C(=O)C(=O)C12)C1CC[C@H](O)[C@@]1(C)C[C@H]3O)CC (stereo partly drawn) [(2R,3S,6Z,14S,15S,17R)-6-[(diethylamino)methylidene]-8,14,17-trihydroxy-3-(methoxymethyl)-2,15-dimethyl-4-oxatetracyclo[8.7.0.0^{2,7}.0^{11,15}]heptadeca-1(10),7-diene-5,9-dione] in this work. An IC50 of 382 nM was found for CCN(C=C1C(=O)O[C@H](COC)[C@]2(C)C3=C(C(=O)C(=O)C12)C1CC[C@H](O)[C@@]1(C)C[C@H]3OC(C)=O)CC (stereo partly drawn) [(2R,3S,6Z,14S,15S,17R)-6-[(diethylamino)methylidene]-8,14-dihydroxy-3-(methoxymethyl)-2,15-dimethyl-5,9-dioxo-4-oxatetracyclo[8.7.0.0^{2,7}.0^{11,15}]heptadeca-1(10),7-dien-17-yl acetate] in this work. With CCNC=C1C(=O)O[C@H](COC)[C@]2(C)C3=C(C(=O)C(=O)C12)C1CC[C@H](O)[C@@]1(C)C[C@H]3OC(C)=O (stereo partly drawn) [(2R,3S,6Z,14S,15S,17R)-6-[(ethylamino)methylidene]-8,14-dihydroxy-3-(methoxymethyl)-2,15-dimethyl-5,9-dioxo-4-oxatetracyclo[8.7.0.0^{2,7}.0^{11,15}]heptadeca-1(10),7-dien-17-yl acetate] the IC50 was > 10000 nM.
